In patent US20260041637A1, “VESICLES BASED ON GLUCOSE-DERIVED SURFACTANTS AND PHYTOSTEROLS” (NANOMOL TECHNOLOGIES, S.L., priority 2022, published 2026):

Assays:
[1] = Entrapment efficiency (EE) by UV-Vis spectroscopy; assay type: physicochemical
Procedure: Entrapment efficiency (EE) of each active was determined by UV-Vis absorbance using an UV-Vis spectrophotometer (Thermo Scientific™ Evolution™ 201 UV-Visible Spectrophotometers, Thermo Scientific). For lipophilic actives (7-DHC, CBD, TCP, DiD and Dil) Vs membrane was dissociated to release the active by diluting the sample in ethanol at 80% (v/v) until a value of absorption below 1 and inside the calibration curve obtained. The concentration of each active was determined using a calibration curve, using the same media than the corresponding Vs system. The active was quantified before and after filtering process and both values were used to calculate the EE using Equation 1 (as described herein). As the lipophilic molecules are not soluble in aqueous media, it was considered that the filtered sample contained only the integrated active, since all the precipitated and non-integrated active should remain in the filter.
A different protocol was followed for hydrophilic actives (NCA, AG and MTX), in which, after the Vs filtration process, another step was applied to separate the non-integrated active. For NCA and AG, an ultracentrifugation step of the filtered sample was performed (6h, 4° C., 600000g) (Sorvall Discovery M150 Micro-Ultracentrifuge, Thermo Scientific). […]

[2] = Entrapment efficiency (EE) by fluorescence spectroscopy (proteins); assay type: physicochemical
Procedure: iii) Entrapment efficiency (EE) by fluorescence spectroscopy: Entrapment efficiency (EE) of both proteins was determined by fluorescence spectroscopy using a Varian Cary Eclipse (Agilent Technolo-gies, Santa Clara, USA). In both cases, the separation of the non-integrated protein from that integrated in Vs was done by TFF (KrosFlo® Research 11i TFF diafiltration system (KR2i), with a mPES filter hollow column cut-off 300 KDa (C04-E100-05-N, Spectrum Labs, SL). Then, the permeate fraction was recovered and analyzed by fluorescence, exciting the proteins at 278 nm. The concentration was calculated using a calibration curve using the same media of the corresponding Vs system. The entrapment efficiency was then calculated using Equation 2, as described herein.

[3] = Antioxidant capacity by 2,2-diphenyl-1-picrylhydrazyl (DPPH) assay; assay type: biochemical; details: molar ratio DPPH:TCP 1:0.3, 30 minutes in the dark, 517 nm; mean ± s.d. of two independent experiments
Procedure: DPPH assay is a well-known and established method to measure antioxidant capacity of a molecule. […] When DPPH is in its oxidated form presents a violet color that changes to yellow/white when is reduced. This color change can be followed using UV-Vis spectroscopy. The assay was carried out in ethanol always maintaining a molar ratio DPPH: TCP of 1:0.3. In order to have 3 mL of final volume, DPPH was diluted in ethanol to have a final concentration of 63.4 μM. Free TCP and TCP DELOS-NVs were diluted to have a final concentration of 19 µM of TCP. Each solution was then mixed and kept at room temperature for 30 minutes in the dark. The absorbance of the solution was measured at 517 nm using a Thermo Scientific™ Evolution™ 201/220 UV-Visible spectrophotometer (Thermo Scientific). The percentage of TCP antioxidant capacity was calculated using the Equation 3, where Abscontrol is the absorbance at 517 nm of DPPH in ethanol and Abssample is the absorbance at 517 nm of the sample prepared as described (free TCP or TCP DELOS-NVs with DPPH).
The antioxidant capacity of TCP was evaluated once it was integrated in the NVs to verify that the molecule was still active after the encapsulation. The antioxidant capacity was measured by the 2,2-diphenyl-1-picrylhydrazyl (DPPH) assay. DPPH is a stable free radical that can be reduced in the presence of hydrogen-donating antioxidants such as TCP. […]

C=C(C)[C@@H]1CCC(C)=C[C@H]1c1c(O)cc(CCCCC)cc1O [CBD, cannabidiol]
EE [%] ([1]; active-loaded Sit:LGC (1:1) and Sit:LGL:LGC (1:0.8:0.2) Vs): 22-33%

CN(Cc1cnc2nc(N)nc(N)c2n1)c1ccc(C(=O)N[C@@H](CCC(=O)O)C(=O)O)cc1 [MTX, Methotrexate]
EE [%] ([1]; active-loaded Sit:LGL-p:DC-Chol (0.8:1:0.2) Vs): 88%

b-FGF: basic fibroblast growth factor, small protein, encapsulated active
EE [%] ([2]; protein (b-FGF) in negatively charged Sit:LGC (1:1) Vs): > 99%

Cc1c(C)c2c(c(C)c1O)CCC(C)(CCCC(C)CCCC(C)CCCC(C)C)O2 (racemic) [Free TCP, DL-alpha-Tocopherol]
Antioxidant capacity (%) [3]: 60 ± 9%

HGH: Human growth hormone, small protein, encapsulated active
EE [%] ([2]; protein (HGH) in Sit:LGL-p:DC-Chol (0.8:1:0.2) Vs): over 99%
